Data on seven compounds can be found in patent publication US4977189A, “Substituted guanidinedicarbonyl derivatives” (American Cyanamid Company, priority 1988, dated 1990).

One test concerns Royal Hart mice. Nature of the test: Hypoxic Survival Test. The format is in vivo, mouse (Royal Hart). The following applies: Mus musculus, ip, 5 min, 30 minutes prior, 10% oxygen, survival after 5 minutes, read-out: % Survivors; for responders at 50 mg/kg: 50 mg/kg intraperitoneally; for responders at 100 mg/kg: 100 mg/kg intraperitoneally. As to the method:
A useful in vivo test that measures how effectively central nervous system-acting drugs enhance survival in a hypoxic environment, presumably by improving the ratio of energy supply to demand is known as the Hypoxic Survival Test. […] Drugs are tested by intraperitoneally injecting groups of mice 30 minutes prior to placing them in a hypoxic mixture and measuring survival. The rationale of this test is that drugs which enhance survival under hypoxic conditions without concomitant, depression or sedative side effects, may do so by enhancing energy metabolism, or by preserving normal brain function under conditions of reduced energy metabolism. Given the dependence of the brain on a constant supply of energy, drugs which have this property may have many far-reaching therapeutic indications, including recovery from stroke and closed head injury, as well as reducing the deleterious effects of the aging central nervous system.
Groups of 20 Royal Hart mice (6 weeks of age) are injected intraperitoneally with test compound (1-200 mg/kg) 30 minutes prior to placing them in a hypoxic mixture (10% oxygen in 90% […]) and measuring survival after 5 minutes.
A separate group of 20 mice is injected intraperitoneally with saline solution (0.01 cc/g of body weight) and processed as described above.
Still another group of 20 mice is injected intraperitoneally with 0.125 mg/kg of physostigmine and processed as described above.

For test [1], the system named is Brain-Specific Receptors (3H-benzodiazepine binding). Put plainly: Inhibition of the Binding of 3H-Benzodiazepine to Brain-Specific Receptors of Rats. Further details: species or system rat (male albino, Wistar strain; whole cortex). The conditions noted are these: 3H-diazepam (1.5 nM) or 3H-flunitrazepam (1.0 nM); rat cortex P2-fraction; 30 minutes in ice; test concentration not given. The source says:
A test utilized for the determination of anxiolytic activity is the measurement of the ability of test compounds to inhibit the binding of tritiated benzodiazepines to brain-specific recptors of warm-blooded animals. A modification of the method described by R. F. Squires, et al., Nature, 266, No. 21, pg 732 (April, 1977) and H. Mohler, et al., Science, 198, pg 849 (1977) was employed.
Male albino rats (Wistar strain, weighing 150-200 g each) were used. The test compounds were solubilized in either dimethylformamide, acetic acid, ethanol or hydrochloric acid.
Whole cortex of rats was homogenized gently in 20 volumes of ice-cold 0.32M sucrose, centrifuged twice at 1000 g for 10 minutes and then recentrifuged at 30,000 g for 20 minutes to produce a crude P2 -synaptosomal fraction. The P2 -fraction was either: (1) resuspended in twice the original volume in hypotonic 50 mM Tris.HCl (pH 7.4), or (2) resuspended in one-half the original volume in hypotonic 10 mM Tris.HCl (pH 7.4) and frozen (-20° C.) until time of use. Frozen P2 preparations were thawed and resuspended in four times the original homogenizing volume at time of assay.
The binding assay consisted of 300 μl of the P2 -fraction suspension (0.2-0.4 mg protein), 100 μl of test drug and 100 μl of ^3 H-diazepam (1.5 nM, final concentration) or ^3 H-flunitrazepam (1.0 nM, final concentration) which was added to 1.5 ml of 50 mM Tris.HCl (pH 7.4). Non-specific binding controls and total binding controls d 100 μl of diazepam (3 μM final concentration) and 100 μl of deionized water, respectively, in place of the test compound. Incubation for 30 minutes proceeded in ice and was terminated by filtration, under vacuum, through glass fiber filters. The filters were washed twice with 5 ml of ice-cold 50 mM Tris.HCl (pH 7.4) and placed in scintillation vials. After drying at 50°-60° C. for 30 minutes, 10 ml of diluent was added and the radioactivity determined in a scintillation counter.
Inhibition of binding was calculated by the difference between total binding and binding in the presence of test compound, divided by the total binding, X 100.

For a further test, the system named is Swiss-Webster mice. Put plainly: Passive Avoidance Anoxic Induced Amnesia Test. The format is in vivo, mouse (Swiss-Webster, middle-aged). The following applies: 50 mg/kg intraperitoneally, 30 minutes prior to training and testing; latency vs saline control; 30% considered active. The source says:
Another in vivo test associated with decreased neural function in mammals is the Passive-Avoidance Anoxic-Induced-Amnesia Test. This test is used to determine the attenuation of anoxic induced amnesia in mice treated with drug, as compared to saline treated control animals with no drug.
A shock-motivated, single trial, step-through passive avoidance procedure is used. Groups of 25 Swiss-Webster, middle-aged mice (9 months of age) are placed singly in the front chamber of a 2-chamber box and are allowed to voluntarily cross into the rear chamber. As soon as the mouse enters the rear chamber, a door automatically traps the animal and a mild electric shock (0.4 mA for 4 seconds) is delivered to its feet. Following the foot shock, the mice are initially placed in an anoxic environment (0% oxygen) for 12 seconds, which quickly induces unconsciousness. They are then placed in a hypoxic environment (15% oxygen) for four minutes which prolongs the oxygen deprived state, maintaining unconsciousness. All testing is performed 24 hours later, and in all cases the mice appear fully recovered from the previous anoxic/hypoxic treatment. All test compounds are administered intraperitoneally at a dose of 10-200 mg/kg, 30 minutes prior to training and testing. […]
The latency to enter the rear chamber is recorded for both training and testing. […]

Several values for one entry are separate records, joined by “and”; a condition that tells them apart may be missing. Equal values may be shown once.

As a reminder, the % Inhibition is the change of the read-out against control, counted positive when it falls. Lower therefore signals a response near the control. Take `Cc1cccc(C(=O)N=C(NC(=O)c2cccc(C)c2)Nc2ccc(C(N)=O)cc2)c1` [N,N'-[[4-(Aminocarbonyl)phenyl]carbonimidoyl]bis[3-methylbenzamide]]: in the test with Royal Hart mice, the responders at 50 mg/kg is 40% and the responders at 100 mg/kg turned out to be 43%. Besides, in test [1], the “% Inhibition” value is 25%.
For the compound `NC(=O)c1ccc(N=C(NC(=O)c2ccccc2)NC(=O)c2ccccc2)cc1` [N,N'-[[[4-(Aminocarbonyl)phenyl]imino]methylene]bis[benzamide]], in the test on Royal Hart mice, the responders at 50 mg/kg was determined as 40% and the responders at 100 mg/kg worked out at 62%. Besides, the responders at 200 mg/kg in the test with Royal Hart mice (200 mg/kg intraperitoneally) stood at 47%. For the same compound, in the test with Swiss-Webster mice, the “% Improvement” value is 50% and 54%.
As for `COc1ccc(C(=O)NC(=NC(=O)c2cccs2)Nc2cccc(C(N)=O)c2)cc1` [N-[[[3-(Aminocarbonyl)phenyl]amino][(4-methoxybenzoyl)amino]methylene]-2-thiophenecarboxamide], in the test on Royal Hart mice, the responders at 50 mg/kg was 45% and the responders at 100 mg/kg came out at 45%. Further, the “% Inhibition” value in test [1] is listed as 19%.
As for `NC(=O)c1ccc(NC(=NC(=O)Cc2ccccc2)NC(=O)c2ccccc2)cc1` [N-[[[4-(Aminocarbonyl)phenyl]amino](benzoylamino)methylene]benzeneacetamide], the “% Inhibition” value in test [1] was determined as 22%.
Regarding `Cc1ccc(C(=O)N=C(NC(=O)c2ccc(Br)cc2)Nc2ccc(C(N)=O)cc2)cc1` [N-[[[4-(Aminocarbonyl)phenyl]amino][(4-bromobenzoyl)amino]methylene]-4-methylbenzamide], in test [1], the “% Inhibition” value was 57%.
On the same count and under the same terms, under `COc1ccc(C(=O)NC(=NC(=O)c2ccsc2)Nc2ccc(C(N)=O)cc2)cc1` [N-[[[4-(Aminocarbonyl)phenyl]amino][(4-methoxybenzoyl)amino]methylene]-3-thiophenecarboxamide] stands 14%.
Take `Cc1ccc(C(=O)NC(=NC(=O)c2cccc(C)c2)Nc2ccc(C(N)=O)cc2)cc1` [N-[[[4-(Aminocarbonyl)phenyl]amino][(4-methylbenzoyl)amino]methylene]-3-methylbenzamide]: in test [1], the “% Inhibition” value came out at 85%.
